Data set [1] in a line: Unbound volume of distribution in Wistar Han rat. The data set is classed as ADME. Conditions: in vivo.
Data set [2] addresses PI3-kinase p110-delta/p85-alpha (Homo sapiens, UniProt O00329). Description: Inhibition of N-terminal His6-tagged recombinant full length human p110delta/untagged recombinant full length human p85alpha expressed in baculovirus infected Sf21 insect cells using PIP2 as substrate preincubated for 15 mins followed by substrate addition and measured after 1 hr by HTRF assay. A general note: Time-resolved FRET reads energy transfer from a long-lived donor to a nearby acceptor.

Data set [3] is described as follows: Plasma clearance in Wistar Han rat at 0.05 mg/kg, iv or 1 mg/kg, po. It counts as ADME, organism-based.
A short description of data set [4]: Inhibition of adenosine transporter in human HeLa cells assessed as reduction in [3H]adenosine uptake preincubated for 30 mins followed by [3H]adenosine addition and measured after 60 mins. The data set is classed as cell-based.
Data set [5] is described as follows: Volume of distribution in Wistar Han rat. It counts as ADME. Conditions: in vivo.
Data set [6] can be described thus: Lipophilicity, log D of the compound by HPLC analysis. It counts as physicochemical.
Data set [7] in a line: Half-life in Wistar Han rat. The data set is classed as ADME. Conditions: in vivo.
A short description of data set [8]: Intrinsic clearance in Wistar Han rat at 0.05 mg/kg, iv or 1 mg/kg, po. The data set is classed as ADME, organism-based. Conditions: in vivo.
Data set [9] can be described thus: Plasma clearance in Beagle dog at 0.05 mg/kg. It counts as ADME, organism-based, Canis lupus familiaris.
Data set [10] in a line: Half-life in Beagle dog. It counts as ADME, Canis lupus familiaris. Conditions: in vivo.
A short description of data set [11]: Intrinsic clearance in Beagle dog at 0.05 mg/kg. The data set is classed as ADME, organism-based, Canis lupus familiaris. Conditions: in vivo.
The nature of data set [12]: Unbound volume of distribution in Beagle dog. It counts as ADME, Canis lupus familiaris. Conditions: in vivo.
A short description of data set [13]: Volume of distribution in Beagle dog. It counts as ADME, Canis lupus familiaris. Conditions: in vivo.
The target in data set [14] is T1, Phosphatidylinositol 4,5-bisphosphate 3-kinase catalytic subunit delta isoform (Homo sapiens, UniProt O00329).
T1 sequence (O00329 whole entry): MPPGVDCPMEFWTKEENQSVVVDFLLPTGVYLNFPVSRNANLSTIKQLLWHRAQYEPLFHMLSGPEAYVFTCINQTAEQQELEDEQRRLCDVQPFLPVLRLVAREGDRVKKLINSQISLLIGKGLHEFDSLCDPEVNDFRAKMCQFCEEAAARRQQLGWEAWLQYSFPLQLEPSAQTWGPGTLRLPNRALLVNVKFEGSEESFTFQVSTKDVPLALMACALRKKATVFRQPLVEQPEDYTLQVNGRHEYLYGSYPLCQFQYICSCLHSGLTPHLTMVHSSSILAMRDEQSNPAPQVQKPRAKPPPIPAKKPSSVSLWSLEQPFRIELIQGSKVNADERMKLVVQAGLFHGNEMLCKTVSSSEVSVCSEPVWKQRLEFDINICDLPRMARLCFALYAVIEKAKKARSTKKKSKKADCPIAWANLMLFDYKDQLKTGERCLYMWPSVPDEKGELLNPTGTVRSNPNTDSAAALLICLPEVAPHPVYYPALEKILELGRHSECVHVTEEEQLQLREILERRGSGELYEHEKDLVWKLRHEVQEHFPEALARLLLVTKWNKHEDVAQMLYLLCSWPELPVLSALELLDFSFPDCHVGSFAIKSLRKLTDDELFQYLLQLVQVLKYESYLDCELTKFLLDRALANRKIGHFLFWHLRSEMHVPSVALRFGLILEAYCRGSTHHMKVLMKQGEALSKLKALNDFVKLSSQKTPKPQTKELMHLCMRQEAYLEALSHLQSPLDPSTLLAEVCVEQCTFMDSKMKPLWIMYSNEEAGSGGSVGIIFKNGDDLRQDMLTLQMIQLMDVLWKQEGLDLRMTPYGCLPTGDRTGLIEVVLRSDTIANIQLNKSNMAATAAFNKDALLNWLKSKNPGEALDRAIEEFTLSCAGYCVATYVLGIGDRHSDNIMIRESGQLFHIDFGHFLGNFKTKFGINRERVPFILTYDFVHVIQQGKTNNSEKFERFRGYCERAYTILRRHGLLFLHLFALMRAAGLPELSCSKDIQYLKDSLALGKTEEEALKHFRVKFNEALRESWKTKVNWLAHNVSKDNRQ
Description: Inhibition of PI3Kdelta in human Ramos cells assessed as reduction in anti-IgM-antibody-induced phosphorylation of AKT at Ser473 residue preincubated for 20 mins followed by anti-IgM antibody stimulation and measured after 30 mins by alphascreen assay. It counts as cell-based.

Data set [15] in a line: Apparent permeability in pig LLC-PK1 cells. The data set is classed as ADME, cell-based, Sus scrofa.
The target in data set [16] is T1, Phosphatidylinositol 4,5-bisphosphate 3-kinase catalytic subunit delta isoform. Description: Inhibition of PI3Kdelta in human whole blood assessed as reduction in anti-CD79b antibody-induced CD69 expression preincubated for 60 mins followed by anti-CD79b antibody stimulation and measured after 3 hrs by FACS analysis. The data set is classed as tissue-based. A general note: In flow cytometry, cells or beads pass a laser one at a time.

We go through eight molecules from ChEMBL document CHEMBL4834420, “Projected Dose Optimization of Amino- and Hydroxypyrrolidine Purine PI3Kδ Immunomodulators” (J Med Chem, 2021).

Sequence of PI3-kinase p110-delta/p85-alpha (P27986 whole entry, one chain of several): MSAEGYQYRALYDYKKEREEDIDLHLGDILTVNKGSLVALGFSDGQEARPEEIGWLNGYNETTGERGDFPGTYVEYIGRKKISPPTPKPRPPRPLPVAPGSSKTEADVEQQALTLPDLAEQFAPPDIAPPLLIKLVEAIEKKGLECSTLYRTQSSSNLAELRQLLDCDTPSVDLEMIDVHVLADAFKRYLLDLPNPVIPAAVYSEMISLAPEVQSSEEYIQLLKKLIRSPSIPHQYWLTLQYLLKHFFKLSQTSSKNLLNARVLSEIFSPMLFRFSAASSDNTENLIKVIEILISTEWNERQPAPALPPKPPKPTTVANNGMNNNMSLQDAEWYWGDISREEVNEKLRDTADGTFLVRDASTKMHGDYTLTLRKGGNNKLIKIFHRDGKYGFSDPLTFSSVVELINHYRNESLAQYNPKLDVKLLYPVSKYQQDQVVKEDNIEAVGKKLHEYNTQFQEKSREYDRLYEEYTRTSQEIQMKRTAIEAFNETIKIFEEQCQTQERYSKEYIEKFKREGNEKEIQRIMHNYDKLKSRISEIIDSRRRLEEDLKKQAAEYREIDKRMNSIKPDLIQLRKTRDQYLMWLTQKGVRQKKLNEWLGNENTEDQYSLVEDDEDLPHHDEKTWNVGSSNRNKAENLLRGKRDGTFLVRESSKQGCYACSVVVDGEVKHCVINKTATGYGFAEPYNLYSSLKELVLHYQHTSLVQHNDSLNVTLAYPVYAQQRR

In data set [1], `CCn1c(-c2cnc(C)nc2)nc2c(N[C@H]3CCN(C(=O)C4CCOC4)C3)ncnc21` (stereo partly drawn) yielded a Vdu of 2.3 L/kg. The IC50 in data set [2] is 0.0016 µM; in data set [4], greater than 10 µM. The clearance in [3] was 1.08 L/h/kg. Also, the Vd in data set [5] is 0.7 L/kg. The same molecule came in with a logD in data set [6] of 0.6. In addition, the half-life in data set [7] is 36 min. Moreover, the CL in data set [8] came out at 4.44 L/h/kg.
As to `CCn1c(-c2cnc(C)nc2)nc2c(O[C@H]3CCN(C(=O)C4CCC4)C3)ncnc21`, the clearance came to 0.72 L/h/kg in data set [9] and 1.68 L/h/kg in data set [3]. The Vdu in data set [1] turned out to be 4 L/kg; in data set [12], 1.4 L/kg. Moreover, the IC50 in [2] is 0.0012 µM; in data set [4], 7.7 µM; in [14], 0.014 µM. In addition, the results for the half-life in data set [10] and in [7] were 66 min and 18 min, respectively. The figures for the CL in data set [11] and in [8] were 1.62 L/h/kg and 16.2 L/h/kg, respectively. For the same molecule, the Vd was 0.6 L/kg in data set [5] and 1 L/kg in data set [13]. The logD in data set [6] stood at 1.3.
For the molecule `CCn1c(-c2ccc(C(F)(F)F)nc2)nc2c(O[C@H]3CCN(C(=O)C4CC4)C3)ncnc21`, the Vdu in data set [1] was found to be 8.3 L/kg. The IC50 in [2] worked out at 0.0051 µM; in data set [4] it was 5.6 µM; in data set [14] it was 0.049 µM. Further, in data set [3], the clearance is 0.9 L/h/kg. Besides, in [5], the volume of distribution (Vd) worked out at 0.7 L/kg. The logD in data set [6] came to 2.3. Besides, in [7], the half-life was 42 min. In addition, in data set [8], the CL worked out at 14.4 L/h/kg.
In the case of `CCn1c(-c2cnc(C)nc2)nc2c(N[C@H]3CCN(C(=O)C4CC(F)(F)C4)C3)ncnc21`, the Vdu in data set [1] turned out to be 18 L/kg. For the same molecule, the IC50 is 0.0022 µM in data set [2], 3.8 µM in data set [4] and 0.013 µM in data set [14]. The molecule also gave a clearance in data set [3] of 1.56 L/h/kg. In data set [5], this molecule yielded a Vd of 0.9 L/kg. Besides, the logD in data set [6] came to 1.5. In [7], this molecule showed a half-life of 24 min. Also, the CL in data set [8] was 45.6 L/h/kg.
For `CCn1c(-c2cnc(C)nc2)nc2c(O[C@H]3CCN(C(=O)C4CCOC4)C3)ncnc21` (stereo partly drawn), the clearance turned out to be 0.18 L/h/kg in data set [9] and 0.372 L/h/kg in data set [3]. The Vdu in [1] and in data set [12] was 0.9 L/kg each time. Besides, the results for the IC50 in data set [2] and in data set [4] were 0.006 µM and greater than 10 µM, respectively. In addition, the half-life in data set [10] is 228 min; in data set [7], 84 min. For the same molecule, the CL in data set [11] stood at 0.252 L/h/kg; in data set [8], 0.72 L/h/kg. Besides, the figures for the Vd in [5] and in data set [13] were 0.5 L/kg and 0.7 L/kg, respectively. For the same molecule, the logD in data set [6] amounted to 0.7.
`CCC(=O)N1CC[C@H](Oc2ncnc3c2nc(-c2cnc(C)nc2)n3CC)C1`: the clearance in data set [9] was 0.366 L/h/kg; in data set [3], 0.72 L/h/kg. Besides, the Vdu in data set [1] worked out at 2.4 L/kg; in data set [12] it was 2.7 L/kg. In addition, the half-life in data set [10] was 234 min; in data set [7], 72 min. Also, the CL turned out to be 0.66 L/h/kg in [11] and 1.86 L/h/kg in data set [8]. Also, the IC50 in data set [4] is greater than 10 µM. For the same molecule, the Vd in data set [5] amounted to 1.2 L/kg; in data set [13] it was 1.9 L/kg. The Papp in [15] worked out at 210 nm/s. In data set [6], this molecule came in with a pH-dependent lipophilicity (logD) of 0.8.
Regarding `CCn1c(-c2cnc(C)nc2)nc2c(N[C@H]3CCN(C(=O)c4cocn4)C3)ncnc21`, the Vdu in data set [1] was 6.1 L/kg. For the same molecule, the clearance in [3] came out at 0.78 L/h/kg. Besides, the Vd in [5] stood at 0.6 L/kg. This molecule also gave a logD in data set [6] of 0.6. In addition, the 50% inhibitory concentration (IC50) in data set [14] turned out to be 0.082 µM. The half-life in data set [7] was 42 min. Further, in [8], the CL came to 9 L/h/kg.
As for `CCn1c(-c2cnc(C)nc2)nc2c(O[C@H]3CCN(C(=O)C4CC(F)(F)C4)C3)ncnc21`, the clearance in [9] stood at 1.38 L/h/kg; in data set [3] it was 0.36 L/h/kg. For the same molecule, the Vdu in data set [1] is 3 L/kg; in data set [12], 2.5 L/kg. In addition, the IC50 amounted to 0.0038 µM in data set [2], 0.084 µM in [16], 9.9 µM in data set [4] and 0.032 µM in data set [14]. For the same molecule, the half-life is 48 min in data set [10] and 84 min in [7]. Also, the CL in [11] came to 10.2 L/h/kg; in [8], 1.68 L/h/kg. The distribution volume (Vd) in data set [5] is 0.5 L/kg; in [13] it was 1.4 L/kg. This molecule also returned a logD in [6] of 1.5.

For orientation: IC50 means the concentration at which inhibition is half-maximal. The term Vd denotes a proportionality between amount in the body and measured concentration, not a real space. As usually defined, the logD is lipophilicity at a set pH, counting ionised and neutral species. Broadly, the half-life is the time needed for the level to fall by half in the phase considered. In general, Papp refers to the rate of passage across a membrane or cell layer, normalised by area and donor concentration.
